From US20030003451A1, “Novel G protein-coupled receptors” (priority 2000, published 2003)
Where “and” joins values, the source holds several entries; their conditions need not be identical. Identical values can stand only once. Blank lines part the entries; values can stand above or below the molecule they belong to. Bridge positions count the residues as written; N and C are the ends. Ends that are not written are not given here. Peptide text beside a SMILES is read from it. * marks the point of attachment. 125I = [125I]*

Columns and labels:
[1] = tested on: CHO cells stably transfected with a nGPCR-x expression vector; assay: Intracellular calcium measurement using FLIPR, positive controls; format: cell-based, Chinese Hamster; conditions: A23187 10 μM, ATP 4 μM
Description: Changes in intracellular calcium levels are another recognized indicator of G protein-coupled receptor activity, and such assays can be employed to screen for modulators of nGPCR-x activity. For example, CHO cells stably transfected with a nGPCR-x expression vector are plated at a density of 4×10^4 cells/well in Packard black-walled, 96-well plates specially designed to discriminate fluorescence signals emanating from the various wells on the plate. The cells are incubated for 60 minutes at 37 C. in modified Dulbecco's PBS (D-PBS) containing 36 mg/L pyruvate and 1 g/L glucose with the addition of 1% fetal bovine serum and one of four calcium indicator dyes (Fluo-3™ AM, Fluo-4™ AM, Calcium Green™-1 AM, or Oregon Green™ 488 BAPTA-1 AM), each at a concentration of 4 μM. […]
A calcium response is initiated by the addition of one or more candidate receptor agonist compounds, calcium ionophore A23187 (10 μM; positive control), or ATP (4 μM; positive control). Fluorescence is measured by Molecular Device's FLIPR with an argon laser (excitation at 488 nm). […] Basal fluorescence of cells was measured for 20 seconds prior to addition of candidate agonist, ATP, or A23187, and the basal fluorescence level was subtracted from the response signal. The calcium signal is measured for approximately 200 seconds, taking readings every two seconds. […]

nGPCR-51 [2] = target: T1, nGPCR-51 (Homo sapiens, UniProt Q969V1); assay: Aequorin luminescence assay, COS 7 cells co-transfected with nGPCR-51 and mtAequorin; format: cell-based; conditions: nGPCR-51 expressing COS 7 cells
T1 construct: expressed in transfected cells
T1 sequence (Q969V1 whole entry): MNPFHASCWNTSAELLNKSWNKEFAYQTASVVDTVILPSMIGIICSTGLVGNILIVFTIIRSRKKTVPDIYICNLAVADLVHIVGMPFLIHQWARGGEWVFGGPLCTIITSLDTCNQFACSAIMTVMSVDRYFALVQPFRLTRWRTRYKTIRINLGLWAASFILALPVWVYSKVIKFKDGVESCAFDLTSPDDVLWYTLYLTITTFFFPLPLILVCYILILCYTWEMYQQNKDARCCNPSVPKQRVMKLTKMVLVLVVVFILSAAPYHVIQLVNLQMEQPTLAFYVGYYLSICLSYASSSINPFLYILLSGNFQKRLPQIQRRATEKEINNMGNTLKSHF
Description: Agonist activation of receptors that couple to the Gq subtype of G proteins will lead to the release of intracellular calcium. The photoprotein aequorin emits a characteristic luminescence in the presence of calcium and may be expressed in cells along with the receptor of interest in order to report agonist signalling. Peptide A was tested for the ability to activate nGPCR-51 using an assay for aequorin. Peptide A, a cyclic peptide via a disulfide bond between the Cys residues, has the following amio acid sequence: Asp Phe Asp Met Leu Arg Cys Met Leu Gly Arg Val Tyr Arg Pro Cys Trp Gln Val (SEQ ID NO: 183). Preferably, Peptide A is used in a solution containing 0.17M acetic acid, or the like, and a stabilizer such as a 0.2% BSA:acetonitrile 90:10. […] After the coelenterazine loading incubation, the cells are counted and diluted to 1×10^6 cells/ml in assay buffer. […] The instrument is programmed to dispense 50 μl cell suspension into each well, one well at a time, and immediately read luminescence for 20 seconds. […] Data are analyzed with SlideWrite, using the equation y=a^0*a^1/(x+a^1)+a^2 where a^0 is the maximum response minus the baseline; a^1 is the EC50; and a^2 is the […].

nGPCR-51 [3] = target: T1, nGPCR-51; assay: NFkB-Luciferase reporter gene assay, nGPCR-51 (Seq51)-transfected N7 (HOS) cells; format: cell-based; conditions: 5-hr incubation, 2 separate experiments, read-out: EC50, luciferase expression
Description: nGPCR-51 was transfected in N7 cells, stable HOS (human osteosarcoma) cells expressing NFkB-Luciferase reporter gene Briefly, LipofectAMINE, PLUS reagent, and 4 μg DNA were added to cells in Opti-MEM. After 4 hours, serum-containing medium was added to each plate. Twenty-four hour after transfection the cells were trypsinized and seeded in COSTAR white 96-well plate at a cell density of about 20,000 cells per well. Another 24 hours later the culture medium was replaced with fresh growth medium and Peptide A was added. After 5-hr incubation with Peptide A, the medium was aspirated and 100 μL diluted Steady Glo was added. The plates were gently shake at room temperature for 30 minutes and luminescence determined by TopCount at the SPC mode.

nGPCR-51 [4] = target: T1, nGPCR-51; assay: Intracellular calcium measurement using FLIPR, nGPCR-51-transfected HEK293 cells; format: cell-based; conditions: fluo-4, FLIPR, read-out: EC50, calcium mobilization
Description: (§1) HEK293 cells were transiently transfected with an expression vector for nGPCR-51 and empty vector using Lipofectamine plus (Gibco) according to the manufacturer's instructions. The next day, the cells were seeded into 96-well plates at 25,000 cells per well. The following day, cells were loaded with 1 uM Fluo-4-acetoxymethyl fluorescent indicator dye (Molecular Probes) in MEM (minimal essential media) containing 0.1% bovine serum albumin, 0.04% pluronic acid and 2.5 mM probenecid for 30 minutes at 37 C. The cells were washed with pre-warmed (37 C.) assay buffer (Hanks buffer containing 15 mM HEPES, 2.5 mM probenecid and 0.1% bovine serum albumin). Assay buffer (100 ul) was added to each well and plates were incubated at 37 C. for 15 minutes. Various concentrations (0.03 pM-10 nM) of human Peptide A or salmon Peptide B were added and fluorescence produced by fluo-4 (a calcium sensitive dye) was measured every second for 150 seconds on a fluorometric imaging plate reader (FLIPR1; Molecular Devices). Human Peptide A and salmon Peptide B-induced calcium mobilization in nGPCR-51-transfected cells with EC50 values of 3 nM and 6 nM, respectively. Human Peptide A and salmon Peptide B had no effect on vector-transfected cells.

vector-transfected cells = assay: Intracellular calcium measurement using FLIPR, empty vector control HEK293 cells; format: cell-based, human; conditions: 0.03 pM-10 nM
Description: as §1

[5] = intracerebroventricular injection; cited from earlier work
[6] = in vivo; cited from earlier work
[7] = central injections in rats; cited from earlier work
[8] = injections into the medial preoptic area of the hypothalamus of rats; cited from earlier work
[9] = injections of the peptide; cited from earlier work
[10] = intracerebroventricular injection, rats; cited from earlier work
SLC-1 gene product = conditions: cited from earlier work
nGPCR-51 [11] = target: T2, nGPCR-51 (human (H. sapiens), UniProt Q969V1 1-340); assay: cell-based or functional assay
T2 sequence (Q969V1 whole entry): as above

nGPCR-51 [12] = target: T2, nGPCR-51; assay: saturation radioligand binding, membranes of COS 7 cells transiently expressing nGPCR-51, filtration
Description: HEK 293 or COS 7 cells transiently expressing nGPCR-51, or CHO K-I cells stable expressing nGPCR-51, were grown to sub-confluence (2 days post-transfection for transients), harvested from flasks in Dulbecco's PBS and pelleted by low speed centrifugation (2500 rpm) for 10 minutes. Cell pellets were homogenized in 10 ml tissue buffer (50 mM Hepes, 10 mM MgCl₂, 2 mM EGTA, 1 μg/ml aprotinin, 1 μg/ml leupeptin hemisulfate, 1 μg/ml pepstatin A, pH 7.0) using a dounce, 10 strokes. Homogenate was centrifuged at 47,000× g for 15 minutes. Membrane pellet was resuspended in 1 ml tissue buffer using the dounce, 10 strokes. An aliquot of the membrane preparation was used to determine protein concentration. For measurement of saturation binding, 10 μg of cell membranes were incubated with various concentrations of [¹²⁵I] Peptide A (iodinated by routine procedures via the Tyr residue) in 300 μl binding assay buffer (tissue buffer plus 0.15 mM Bacitracin and 0.1% ovalbumin) for 90 minutes at room temperature in 96-well plates. Non-specific binding was defined by the inclusion of 1 μM Peptide A. After the binding incubation, plates were harvested onto GF/C filters presoaked in 0.3% non-fat dry milk. […] Filter plates were then counted in a Packard Topcount™ 96-well microplate scintillation counter. Data were analyzed using GraphPad Prism (San Diego, Calif.) and Kd and Bmax values were calculated. […]

Molecule: Nc1ncnc2c1ncn2[C@@H]1O[C@H](COP(=O)(O)OP(=O)(O)OP(=O)(O)O)[C@@H](O)[C@H]1O [ATP]
increase of calcium signal above baseline levels [1]: 200%

Molecule: CNc1ccc2oc(C[C@H]3O[C@@]4(CC[C@H]3C)O[C@H]([C@H](C)C(=O)c3ccc[nH]3)[C@H](C)C[C@H]4C)nc2c1C(=O)O [Peptide A23187]
increase of calcium signal above baseline levels [1]: 200%

Molecule: DFDMLRCMLGRVYRPCWQV (disulfide 7-16 (inferred)) [Peptide A]
aequorin luminescence, EC50 (nGPCR-51 [11]): ~40 nM
aequorin luminescence, maximum response (nGPCR-51 [11]): 52 fold over baseline
calcium mobilization (FLIPR, fluo-4, HEK293 cells), EC50 (nGPCR-51 [11]): 3 nM

More lines, main results first:

EC50 (nGPCR-51 [2]): ~40 nM
maximum response, aequorin luminescence (nGPCR-51 [2]): 52 fold over baseline
EC50 (nGPCR-51 [3]): 1.6 nM and 1.7 nM
EC50 (nGPCR-51 [4]): 3 nM
Molecule: CSCC[C@@H]1NC(=O)[C@@H](NC(=O)[C@H](CCCNC(=N)N)NC(=O)[C@H](CC(C)C)NC(=O)[C@H](CCSC)NC(=O)[C@H](CC(=O)O)NC(=O)[C@H](Cc2ccccc2)NC(=O)[C@@H](N)CC(=O)O)CSSC[C@@H](C(=O)N[C@@H](Cc2c[nH]c3ccccc23)C(=O)N[C@@H](CCC(N)=O)C(=O)N[C@H](C(=O)O)C(C)C)NC(=O)[C@@H]2CCCN2C(=O)[C@H](CCCNC(=N)N)NC(=O)[C@H](Cc2ccc(O)cc2)NC(=O)[C@H](C(C)C)NC(=O)[C@H](CCCNC(=N)N)NC(=O)CNC(=O)[C@H](CC(C)C)NC1=O [Peptide A, Asp Phe Asp Met Leu Arg Cys Met Leu Gly Arg Val Tyr Arg Pro Cys Trp Gln Val]
effect on calcium mobilization in vector-transfected cells (vector-transfected cells): no effect
conditioning amplitude of the second of a pair of auditory evoked potentials recorded from the hippocampus [5]: decrease in the conditioning amplitude
effect on increases in the conditioning amplitude induced by alpha MSH [5]: reverses the increases in the conditioning amplitude
passive avoidance performance [6]: alter passive avoidance performance
peak circadian ACTH levels [7]: reduction in peak circadian ACTH levels
stress-induced ACTH secretion [7]: inhibit stress-induced ACTH secretion
time spent in open arms, elevated plus maze [8]: decreases in time spent in open arms
female sexual receptivity [9]: stimulated female sexual receptivity
food intake [10]: increase in food intake
activation of SLC-1 G-protein coupled receptor (SLC-1 gene product): potently activated

EC50 (nGPCR-51 [3]): ~25 nM
EC50 (nGPCR-51 [4]): 6 nM
Molecule: CSCC[C@@H]1NC(=O)[C@@H](NC(=O)[C@H](CCCNC(=N)N)NC(=O)[C@H](CCSC)NC(=O)[C@@H](NC(=O)[C@@H](N)CC(=O)O)[C@@H](C)O)CSSC[C@@H](C(=O)N[C@@H](Cc2c[nH]c3ccccc23)C(=O)N[C@@H](CCC(=O)O)C(=O)N[C@H](C(=O)O)C(C)C)NC(=O)[C@@H]2CCCN2C(=O)[C@H](CCCNC(=N)N)NC(=O)[C@H](Cc2ccc(O)cc2)NC(=O)[C@H](C(C)C)NC(=O)[C@H](CCCNC(=N)N)NC(=O)CNC(=O)[C@H](C(C)C)NC1=O [salmon Peptide B, Asp Thr Met Arg Cys Met Val Gly Arg Val Tyr Arg Pro Cys Trp Glu Val] (HELM PEPTIDE1{D.T.M.R.C.M.V.G.R.V.Y.R.P.C.W.E.V}$PEPTIDE1,PEPTIDE1,5:R3-14:R3$$$V2.0; N-terminus and C-terminus assumed)
effect on calcium mobilization in vector-transfected cells (vector-transfected cells): no effect

calcium mobilization (FLIPR, fluo-4, HEK293 cells), EC50 (nGPCR-51 [11]): 6 nM
luciferase expression (NFkB-Luciferase reporter, N7 cells), EC50 (nGPCR-51 [11]): ~25 nM
Molecule: DTMRCMVGRVYRPCWEV [Salmon Peptide B]

Kd (nGPCR-51 [12]): 0.254 nM
Molecule: DFDMLRCMLGRVY(125I)RPCWQV (disulfide 7-16 (inferred)) [[^125I] Peptide A]
